Data as given in patent US20240261267A1, “METHODS FOR TREATING MULTIPLE SCLEROSIS” (Vanda Pharmaceuticals Inc., priority 2021, published 2024).

Assays:
primary mouse OPCs = assay: agarose drop migration assay; type: cell-based; conditions: 3000 nM; after 5 days; normalized to 0.1% DMSO
Procedure: The effects of ponesimod, a selective S1P1 receptor agonist, and A971432, a selective S1P5 receptor agonist, on oligodendrocyte precursor cell (OPC) migration and differentiation were evaluated. Nine concentrations were tested (logarithmic dilutions ranging from 0.3 nM to 3000 nM, n=6 per concentration). Fingolimod phosphate (P-FTY720, 3000 nM, n=6) was included as a positive control, 0.1% DMSO was included (min.one/plate) as a negative control. Primary mouse OPCs were harvested on postnatal day 0 or 1 and mixed glia cultures were maintained for 14 days. Primary OPCs were then purified using the shake-off method, and used for either a migration assay, or a differentiation assay, as detailed below. To harvest primary mouse OPCs, cortices are isolated from mouse pups on postnatal day 0 or 1 and placed in ice-cold Dulbecco's Modified Eagle Medium (DMEM) (Sigma Aldrich, Overijse, BE). The cortices are homogenized and centrifuged for 5 minutes at 300 G. The supernatant is removed, and a papain solution is added for 30 minutes (125 uL DMEM solution per brain containing 20 units/ml papain and 40 μg/ml DNase, at 37 degrees). Digestion is inactivated by adding 9 ml cold DMEM. The solution is then centrifuged for 5 minutes at […]. The supernatant is carefully removed, and the pellet is resuspended in 2-5 ml culture medium (DMEM with 10% fetal calf serum (Biowest, Nuaillé, FR) and 1% pen/strep (Sigma Aldrich, Overijse, BE)). […] Cell suspension is divided over PLL (Sigma Aldrich, Overijse, BE)-coated flasks (2 brains per flask) and DMEM is added to a final volume of 10 ml. DMEM is replaced on day 4, 7, and 11. On day 7 and 11, insulin (Sigma Aldrich, Overijse, BE) is added to the medium (5μg/ml). On day 14, OPCs are separated from astrocytes by the shake-off method: flasks are placed on a shaker for 45 minutes at 75 rpm (37 degrees). […] The extent of cell migration is then measured after 5 days using Incucyte imaging analysis and fluorescent endpoint staining. For each well, the 15-20 cells that migrated the furthest away from the agarose drop are measured and averaged. […]

[1] = comparison given in brackets; cited from earlier work
[2] = system: adult subjects with relapsing MS; assay: Phase III OPTIMUM study, safety and treatment discontinuation
Procedure: A prospective, multicenter, randomized, double-blind, active controlled, parallel-group, phase III, superiority study (Phase III OPTIMUM study) was conducted.
Subjects had active disease evidenced by one or more MS attacks with onset within the period of 12 to 1 months prior to baseline EDSS assessment, or by two or more MS attacks with onset within the 24 to 1 months prior to baseline EDSS assessment, or with one or more gadolinium-enhancing (Gd+) lesion(s) of the brain on an MRI performed within 6 months prior to baseline EDSS assessment. Enrolled subjects were ambulatory with an EDSS score of up to 5.5 inclusive. The subjects were treatment-naïve (i.e., no MS disease-modifying therapy received at any time in the past) or previously treated with interferon (IFN) β-1a, IFN β-1b, glatiramer acetate, dimethyl fumarate, or natalizumab.
The treatment period consisted of an up-titration period (from Day 1 to 14) and a maintenance period (Day 15 until EOT).
To reduce the first-dose effect of ponesimod, an up-titration scheme was implemented from Day 1 to Day 14: • Days 1 and 2; 2 mg. • Days 3 and 4; 3 mg. • Days 5 and 6; 4 mg. • Day 7; 5 mg. • Day 8; 6 mg. • Day 9; 7 mg. • Day 10; 8 mg. • Day 11; 9 mg. • Days 12, 13, and 14; 10 mg. • Day 15 until EOT; 20 mg.
The Safety Set (SAF) included all randomized subjects who received at least one dose of study treatment. Subjects were analyzed based on actual treatment taken, not randomized treatment.

[3] = Safety Set, ponesimod 20 mg, teriflunomide 14 mg
[4] = ponesimod 20 mg, teriflunomide 14 mg

For fingolimod phosphate, the migration distance (primary mouse OPCs) was “significantly decreased migration distance”.

For CCc1cc(/C(C)=N/OCc2ccc(C3CCCCC3)c(C(F)(F)F)c2)ccc1CN1CC(C(=O)O)C1 [siponimod], the “ECG HR effect: nadir” value [1] is given as 3 to 4 h.

With C/C(O)=C(\C#N)C(=O)Nc1ccc(C(F)(F)F)cc1 [teriflunomide] the “subjects with asymptomatic post-dose HR≤40 bpm” value ([2]; Day 1, all with pre-treatment HR<55 bpm) was “none”, the “AEs leading to premature discontinuation of study drug, SOC Eye disorders” value [2, 3] was 0 n and the “AEs leading to premature discontinuation of study drug, SOC Respiratory, thoracic and mediastinal disorders” value [2, 3] was 0 n. The “AEs leading to premature discontinuation of study drug, SOC Vascular disorders” value [2, 3] was 0 n, the “Subject with at least one AE leading to study drug discontinuation” value [2, 3] was 6.0% and the “Subject with at least one Serious AE” value [2, 3] was 8.1%. The “Subject with at least one treatment-emergent AE” value [2, 3] was 88.2%, the “Treatment-emergent AESI: Hepatobiliary disorders/Liver enzyme abnormality” value [2, 3] was 14.5% and the “Treatment-emergent AESI: Hypertension” value [2, 3] was 9.0%. For the same compound, the “Treatment-emergent AESI: Pulmonary events” value [2, 3] was 2.7%, the “mean heart rate reduction compared to pre-dose” value ([2]; at 2-hours post dose, Day 1) was −1.7 bpm and the “AESI heart rate and rhythm: Atrioventricular block first degree” value ([2]; on Day 1, Safety Set) was 0 n. The “AESI heart rate and rhythm: Bradycardia” value ([2]; on Day 1, Safety Set) was 0 n, the “AESI heart rate and rhythm: Bundle branch block left” value ([2]; on Day 1, Safety Set) was 0 n and the “AESI heart rate and rhythm: Bundle branch block right” value ([2]; on Day 1, Safety Set) was 0 n. The “AESI heart rate and rhythm: Defect conduction intraventricular” value ([2]; on Day 1, Safety Set) was 0 n, the “AESI heart rate and rhythm: Sinus arrhythmia” value ([2]; on Day 1, Safety Set) was 0 n and the “AESI heart rate and rhythm: Sinus bradycardia” value ([2]; on Day 1, Safety Set) was 0 n. For the same compound, the “AESI effect on heart rate and rhythm (including hypotension): Subjects with at least one AE” value ([2]; on Day 1, Safety Set, ponesimod arm (2 mg on Day 1), teriflunomide 14 mg) was 0.4%, the “TEAE ALT increased” value [2, 4] was 9.4% and the TEAE headache [2, 4] was 12.7%. The TEAE nasopharyngitis [2, 4] was 16.8%, the “TEAE upper respiratory tract infection” value [2, 4] was 10.4% and the “proportion of subjects who experienced ALT increase>3×ULN” value [2, 4] was 8.3%. The “proportion of subjects who experienced ALT increase>8×ULN” value [2, 4] was 2.1% and the “subjects discontinued due to AEs or tolerability related reasons” value [2, 4] was 2.5%.

For CCCCCCCCc1ccc(CCC(N)(CO)CO)cc1 [fingolimod], the “ECG HR effect: nadir” value [1] is listed as about 6 h.
